69 molecules from ChEMBL document CHEMBL1138565, “Docking, 3D-QSAR studies and in silico ADME prediction on c-Src tyrosine kinase inhibitors” (Eur J Med Chem, 2009) can be followed below.

The target in this assay is Proto-oncogene tyrosine-protein kinase Src (Homo sapiens, UniProt P12931). In words: Inhibition of c-Src.
Proto-oncogene tyrosine-protein kinase Src, sequence (P12931 2-536 limits assumed): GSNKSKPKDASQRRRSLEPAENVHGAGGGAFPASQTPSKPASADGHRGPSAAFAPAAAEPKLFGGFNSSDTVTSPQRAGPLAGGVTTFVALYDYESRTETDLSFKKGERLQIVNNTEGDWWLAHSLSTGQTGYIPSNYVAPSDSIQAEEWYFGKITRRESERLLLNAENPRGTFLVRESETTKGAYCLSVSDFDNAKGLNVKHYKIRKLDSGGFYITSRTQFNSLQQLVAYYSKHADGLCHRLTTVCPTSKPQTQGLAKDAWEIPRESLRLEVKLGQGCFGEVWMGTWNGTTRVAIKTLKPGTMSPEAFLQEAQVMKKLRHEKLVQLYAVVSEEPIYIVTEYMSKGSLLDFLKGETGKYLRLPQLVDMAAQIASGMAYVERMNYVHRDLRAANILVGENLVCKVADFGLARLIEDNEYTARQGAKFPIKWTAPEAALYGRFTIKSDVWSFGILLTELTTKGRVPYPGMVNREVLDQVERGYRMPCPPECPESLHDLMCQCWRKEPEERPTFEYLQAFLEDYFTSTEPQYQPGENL
As usually defined, the IC50 is the concentration that gives 50% inhibition. Read a low IC50 as inhibition by little substance. Molecule `CCOC(=O)C[C@@H]1C[C@H](n2cc(-c3ccc(O)cc3)c3c(N)ncnc32)CN1C(=O)OC(C)(C)C` gave an IC50 of 316 nM.
On to `CC(C)(C)OC(=O)N1C[C@H](n2cc(-c3ccccc3)c3c(N)ncnc32)C[C@H]1CO`, for which it took 126 nM to reach half-maximal inhibition (IC50).
In turn, `CCOC(=O)C[C@@H]1C[C@H](n2cc(-c3ccc(O)cc3)c3c(N)ncnc32)CN1` showed an IC50 of 5.01 nM.
Consider `Nc1ncnc2c1c(-c1ccccc1)cn2[C@@H](CO)c1ccccc1`, for which the IC50 was 501 nM.
`COc1ccc(-c2cn(C3CCC3)c3ncnc(N)c23)cc1` showed an IC50 of 200 nM.
`Nc1ncnc2c1c(-c1ccccc1)cn2-c1ccc(CO)cc1` gave an IC50 of 20 nM.
Still for that read-out and setting: to `CCOC(=O)C[C@@H]1C[C@H](n2cc(-c3ccccc3)c3c(N)ncnc32)CN1C(=O)OC(C)(C)C` belongs 5010 nM; to `CCOC(=O)C[C@@H]1C[C@@H](n2cc(-c3ccc(O)cc3)c3c(N)ncnc32)CN1C(=O)OC(C)(C)C`, 31.6 nM; to `Nc1ncnc2c1c(-c1ccccc1)cn2CCC(CO)CO`, 2510 nM.
With `Nc1ncnc2c1c(-c1ccccc1)cn2[C@H]1CN[C@H](CO)C1`, the midpoint of inhibition, the IC50, lay at 316 nM. This IC50 is about 7.9-fold lower than that of the molecule before.
Same read-out and setting: the same measure for `Nc1ncnc2c1c(-c1cccc(Cl)c1)cn2-c1ccccc1`: 200 nM; for `Nc1ncnc2c1c(-c1ccc(O)cc1)cn2C1CCCC1`: 20 nM.
The molecule `CN(C)C(=O)CN1CCC(n2cc(-c3cccc(O)c3)c3c(N)ncnc32)CC1` had an IC50 of 3.16 nM. This IC50 lies about 6.3-fold lower than the previous one.
`Nc1ncnc2c1c(-c1ccc(O)cc1)cn2CC(CO)CO` had an IC50 of 501 nM.
`Nc1ncnc2c1c(-c1ccccc1)cn2-c1ccccc1`: the midpoint of inhibition, the IC50, lay at 100 nM.
The molecule `Nc1ncnc2c1c(-c1ccccc1)cn2C1CCCC1` had an IC50 of 126 nM.
The molecule `Nc1ncnc2c1c(-c1ccc(O)cc1)cn2[C@H]1CN[C@H](CO)C1` gave a half-inhibitory concentration (IC50) of 100 nM.
Take `Nc1ncnc2c1c(-c1ccccc1)cn2[C@H](CO)c1ccccc1`: inhibition was half-maximal at 5010 nM (IC50).
Molecule `Nc1ncnc2c1c(-c1ccccc1)cn2-c1cccc(CNCCO)c1` showed an IC50 of 10 nM.
With `COc1cccc(-c2cn(-c3ccc(CC(=O)NCCO)cc3)c3ncnc(N)c23)c1`, it took 20 nM to reach half-maximal inhibition (IC50).
A word on the Ki: it is the dissociation constant of the complex between target and ligand, obtained from inhibition or displacement. In turn, `O=C(O)c1cnc2c(cnn2/C=C/c2ccccc2)c1NCc1ccccc1` gave an inhibition constant Ki of 3.98 µM.
On to `CCOC(=O)C[C@@H]1C[C@@H](n2cc(-c3ccccc3)c3c(N)ncnc32)CN1`, for which half-maximal inhibition (IC50) required 631 nM.
As for `ClC(Cn1ncc2c(NCc3ccccc3)ncnc21)c1ccccc1` (centres undefined), the affinity corresponds to a Ki of 3.16 µM.
`Nc1ncnc2c1c(-c1ccc(O)cc1)cn2[C@@H]1CN[C@H](CO)C1` gave an IC50 of 50.1 nM.
For `COc1cccc(-c2cn(C3CCN(CCO)CC3)c3ncnc(N)c23)c1`, the IC50 was 25.1 nM. This IC50 lies about 2-fold lower than the previous one.
Regarding `O=c1[nH]cnc2c1c(-c1ccccc1)cn2-c1ccccc1`, it took 10000 nM to reach half-maximal inhibition (IC50). Against the preceding molecule, the IC50 is about 400-fold higher.
As for `COc1cccc(-c2cn(-c3ccc(CCN(C)CCO)cc3)c3ncnc(N)c23)c1`, the IC50 was 31.6 nM.
On the same count and under the same terms, the same measure for `CC(C)(C)OC(=O)N1C[C@@H](n2cc(-c3ccc(O)cc3)c3c(N)ncnc32)C[C@H]1CO`: 316 nM; for `CNc1ncnc2c1c(-c1ccccc1)cn2-c1ccccc1`: 10000 nM.
On to `CCCNc1ncnc2c1cnn2CC(O)c1ccccc1` (centres undefined), for which the affinity corresponds to a Ki of 10 µM.
`COc1ccccc1-c1cn(-c2ccccc2)c2ncnc(N)c12` had an IC50 of 6310 nM. That is a single-digit micromolar value.
`ClC(Cn1ncc2c(NCCc3ccccc3)ncnc21)c1ccccc1` (centres undefined) showed an inhibition constant (Ki) of 2 µM.
`COc1cccc(-c2cn(-c3cccc(CO)c3)c3ncnc(N)c23)c1`: the IC50 is 63.1 nM.
Turning to `COc1cccc(-c2cn(-c3ccccc3)c3ncnc(N)c23)c1`, the IC50 is 50.1 nM.
`COc1ccc(-c2cn(C3CCCC3)c3ncnc(N)c23)cc1` gave an IC50 of 79.4 nM.
`COc1cccc(-c2cn(C3CCC3)c3ncnc(N)c23)c1`: the concentration for half-maximal inhibition (IC50) is 39.8 nM.
The molecule `COC(=O)CN1CCC(n2cc(-c3cccc(O)c3)c3c(N)ncnc32)CC1` showed an IC50 of 1 nM. This IC50 is about 40-fold lower than that of the molecule before.
Take `CCOC(=O)C[C@@H]1C[C@@H](n2cc(-c3ccccc3)c3c(N)ncnc32)CN1C(=O)OC(C)(C)C`: the IC50 is 398 nM.
Same read-out and setting: the same measure for `COc1cccc(-c2cn(C3CCCC3)c3ncnc(N)c23)c1`: 2 nM; for `CCOC(=O)C[C@@H]1C[C@@H](n2cc(-c3ccc(O)cc3)c3c(N)ncnc32)CN1`: 100 nM.
The molecule `COc1cccc(-c2cn(CC(CO)CO)c3ncnc(N)c23)c1` showed an IC50 of 316 nM.
For `Nc1ncnc2c1c(-c1ccccc1)cn2-c1cccc(CO)c1`, the IC50 is 63.1 nM.
Regarding `COc1cccc(-c2cn(C3CCN(CCN(C)CCO)CC3)c3ncnc(N)c23)c1`, the IC50 was 6.31 nM.
Turning to `COc1cccc(-c2cn(C3CCN(CC(N)=O)CC3)c3ncnc(N)c23)c1`, half-maximal inhibition (IC50) was put at 20 nM.
Molecule `CCOC(=O)C[C@@H]1C[C@H](n2cc(-c3ccccc3)c3c(N)ncnc32)CN1` showed an IC50 of 15.8 nM.
As to `COc1cccc(-c2cn(C3CCN(CC(=O)N(C)C)CC3)c3ncnc(N)c23)c1`, the IC50 is 63.1 nM.
In turn, `OC(Cn1ncc2c(NCc3ccc(F)cc3)ncnc21)c1ccccc1` (centres undefined) had an inhibition constant (Ki) of 10 µM.
With `COc1ccc(-c2cn(-c3ccccc3)c3ncnc(N)c23)cc1`, the IC50 is 158 nM.
Take `COc1cccc(-c2cn(-c3ccc(CCN4CCC(O)CC4)cc3)c3ncnc(N)c23)c1`: the IC50 is 20 nM.
Regarding `Nc1ncnc2c1c(-c1ccccc1)cn2[C@@H]1CN[C@H](CO)C1`, the IC50 is 126 nM.
Regarding `CSc1nc(Nc2cccc(Cl)c2)c2cnn(CC(Cl)c3ccccc3)c2n1` (centres undefined), the affinity corresponds to a Ki of 0.794 µM.
In turn, `Nc1ncnc2c1c(-c1ccccc1)cn2-c1ccc(CNCCO)cc1` showed an IC50 of 31.6 nM.
For the molecule `CCOC(=O)c1ccc(-c2cn(-c3ccccc3)c3ncnc(N)c23)cc1`, it took 10000 nM to reach half-maximal inhibition (IC50).
`Nc1ncnc2c1c(-c1cccc(O)c1)cn2C1CCC1` had a half-inhibitory concentration (IC50) of 3.98 nM.
The molecule `CC(C)(C)OC(=O)N1C[C@H](n2cc(-c3ccc(O)cc3)c3c(N)ncnc32)C[C@H]1CO` gave an IC50 of 25.1 nM.
For `Nc1ncnc2c1c(-c1ccccc1)cn2-c1ccccc1CO`, the IC50 was 316 nM.
For `OCCNCCOc1ccc(-n2cc(-c3cccc(O)c3)c3cncnc32)cc1`, the IC50 was 39.8 nM. This IC50 is about 7.9-fold lower than that of the molecule before.
Same read-out and setting: the same measure for `Nc1ncnc2c1c(-c1cccc(O)c1)cn2C1CCCC1`: 1 nM.
On to `Nc1ncnc2c1c(-c1ccccc1)nn2-c1ccccc1`, for which the IC50 was 501 nM.
`COc1cccc(-c2cn(-c3ccc(CNCCO)cc3)c3ncnc(N)c23)c1` showed an IC50 of 31.6 nM.
The same measure, in the same setting: the same measure for `Nc1ncnc2c1c(-c1ccccc1)cn2C1CC1`: 251 nM; for `Nc1ncnc2c1c(-c1ccccc1)cn2C1CCC1`: 100 nM; for `COCCN(C)CCN1CCC(n2cc(-c3cccc(OC)c3)c3c(N)ncnc32)CC1`: 50.1 nM.
As to `COC(=O)CN1CCC(n2cc(-c3cccc(OC)c3)c3c(N)ncnc32)CC1`, the half-maximal inhibitory concentration (IC50) is 79.4 nM. This IC50 is about 1.6-fold higher than that of the molecule before.
The molecule `CC(C)(C)OC(=O)N1C[C@@H](n2cc(-c3ccccc3)c3c(N)ncnc32)C[C@H]1CO` had an IC50 of 2000 nM.
Regarding `Nc1ncnc2c1c(-c1ccc(O)cc1)cn2C1CCC1`, it took 10 nM to reach half-maximal inhibition (IC50).
Molecule `Nc1ncnc2c1c(-c1ccccc1)cn2CC(CO)CO` showed an IC50 of 200 nM.
The molecule `Clc1ncnc2c1c(-c1ccccc1)cn2-c1ccccc1` gave an IC50 of 7940 nM.
Same read-out and setting: to `Nc1ncnc2c1c(-c1ccccc1)cn2-c1ccccc1CNCCO` belongs 5010 nM.
